Publication PMC5820181 (Biochemistry, 2018)

How the values were obtained:
[1] = molecular target: T1, LipDH-mCherry; yeast lipoamide dehydrogenase (Saccharomyces cerevisiae, UniProt P09624); assay: UV-Vis absorbance of purified protein; format: binding; conditions: 50 mM phosphate pH 7.5, 1 mM EDTA; bound as purified
T1 sequence (P09624 22-499): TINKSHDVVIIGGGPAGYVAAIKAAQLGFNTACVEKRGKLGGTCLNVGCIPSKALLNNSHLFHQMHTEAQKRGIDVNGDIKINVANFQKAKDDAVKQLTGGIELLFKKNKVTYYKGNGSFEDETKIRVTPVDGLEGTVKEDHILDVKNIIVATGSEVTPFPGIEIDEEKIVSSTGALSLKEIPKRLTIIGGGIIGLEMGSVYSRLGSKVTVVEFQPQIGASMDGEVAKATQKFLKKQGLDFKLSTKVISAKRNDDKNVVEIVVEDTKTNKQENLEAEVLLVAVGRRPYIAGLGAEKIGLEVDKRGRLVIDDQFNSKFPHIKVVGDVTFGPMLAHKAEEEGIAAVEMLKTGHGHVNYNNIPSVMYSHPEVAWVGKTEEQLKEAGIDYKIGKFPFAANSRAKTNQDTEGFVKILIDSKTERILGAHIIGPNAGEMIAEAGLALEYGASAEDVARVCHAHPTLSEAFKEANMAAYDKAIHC

[2] = molecular target: EcTrxR-mCherry (TrxR-mCherry); E. coli thioredoxin reductase (Escherichia coli, UniProt P0A9P4); assay: UV-Vis absorbance of purified protein; format: binding; conditions: 50 mM phosphate pH 7.5, 1 mM EDTA; bound as purified
Chain of EcTrxR-mCherry (TrxR-mCherry); E. coli thioredoxin reductase (P0A9P4 2-321): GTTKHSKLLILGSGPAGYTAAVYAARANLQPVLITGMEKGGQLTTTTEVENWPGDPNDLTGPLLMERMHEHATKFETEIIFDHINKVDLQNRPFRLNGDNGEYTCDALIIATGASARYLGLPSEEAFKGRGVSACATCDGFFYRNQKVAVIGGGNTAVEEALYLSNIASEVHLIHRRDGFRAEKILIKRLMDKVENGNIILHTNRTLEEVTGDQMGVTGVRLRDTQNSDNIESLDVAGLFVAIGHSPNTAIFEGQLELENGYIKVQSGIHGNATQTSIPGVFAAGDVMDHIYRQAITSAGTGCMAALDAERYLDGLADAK

[3] = molecular target: T1, LipDH-mCherry; yeast lipoamide dehydrogenase; assay: quenching of flavin fluorescence; format: biochemical; conditions: 1 uM probe, 100 uM NADPH; poor substrate

SMILES | UV-Vis absorbance of purified protein [1] | UV-Vis absorbance of purified protein [2] | quenching of flavin fluorescence (456/520 nm) on reduction [3]
Cc1cc2nc3c(=O)[nH]c(=O)nc-3n(C[C@H](O)[C@H](O)[C@H](O)COP(=O)(O)OP(=O)(O)OC[C@H]3O[C@@H](n4cnc5c(N)ncnc54)[C@H](O)[C@@H]3O)c2cc1C [FAD] | purified construct contained the expected complement of flavin and mCherry absorbance contributions | found to contain the expected complement of flavin and mCherry | –
NC(=O)C1=CN([C@@H]2O[C@H](COP(=O)(O)OP(=O)(O)OC[C@H]3O[C@@H](n4cnc5c(N)ncnc54)[C@H](OP(=O)(O)O)[C@@H]3O)[C@@H](O)[C@H]2O)C=CC1 [NADPH] | – | – | the probe responds slowly to this pyridine nucleotide
